Laboratory results as given in PubChem BioAssay (NCI).
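In this assay, cells in 96-well plates receive the compound at five concentrations for 48 hours. Endpoints are linearly interpolated between the surrounding concentrations. GI50: concentration for 50% inhibition of growth. TGI marks complete inhibition of growth.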

Tests used:
Test in all cases: inhibition of tumour cell growth, NCI panel, 48 h
LOX IMVI melanoma = system: LOX IMVI melanoma
UACC-257 melanoma = system: UACC-257 melanoma
KM12 colon = system: KM12 colon
NCI-H460 lung = system: NCI-H460 lung
786-0 renal = system: 786-0 renal
HL-60(TB) leukemia = system: HL-60(TB) leukemia
SK-MEL-2 melanoma = system: SK-MEL-2 melanoma
SW-620 colon = system: SW-620 colon
TK-10 renal = system: TK-10 renal
RXF 393 renal = system: RXF 393 renal
HT29 colon = system: HT29 colon
HCT-15 colon = system: HCT-15 colon
NCI-H226 lung = system: NCI-H226 lung
CAKI-1 renal = system: CAKI-1 renal
HCC-2998 colon = system: HCC-2998 colon
OVCAR-3 ovarian = system: OVCAR-3 ovarian
CCRF-CEM leukemia = system: CCRF-CEM leukemia
A549 NSCLC = system: A549 NSCLC
SK-MEL-5 melanoma = system: SK-MEL-5 melanoma
K-562 leukemia = system: K-562 leukemia
OVCAR-4 ovarian = system: OVCAR-4 ovarian
U251 CNS = system: U251 CNS
SN12C renal = system: SN12C renal
M14 melanoma = system: M14 melanoma
SF-539 CNS = system: SF-539 CNS
BT-549 breast = system: BT-549 breast
SR leukemia = system: SR leukemia
MOLT-4 leukemia = system: MOLT-4 leukemia
MDA-MB-468 breast = system: MDA-MB-468 breast
NCI/ADR-RES ovarian = system: NCI/ADR-RES ovarian
OVCAR-5 ovarian = system: OVCAR-5 ovarian
ACHN renal = system: ACHN renal
MALME-3M melanoma = system: MALME-3M melanoma
EKVX NSCLC = system: EKVX NSCLC
RPMI-8226 leukemia = system: RPMI-8226 leukemia
OVCAR-8 ovarian = system: OVCAR-8 ovarian
SF-295 CNS = system: SF-295 CNS
HOP-92 NSCLC = system: HOP-92 NSCLC
UACC-62 melanoma = system: UACC-62 melanoma
HCT-116 colon = system: HCT-116 colon
PC-3 prostate = system: PC-3 prostate
DU-145 prostate = system: DU-145 prostate
SF-268 CNS = system: SF-268 CNS
SK-MEL-28 melanoma = system: SK-MEL-28 melanoma
HS 578T breast = system: HS 578T breast
MCF7 breast = system: MCF7 breast
COLO 205 colon = system: COLO 205 colon
SNB-75 CNS = system: SNB-75 CNS
SNB-19 CNS = system: SNB-19 CNS
MDA-MB-435 = system: MDA-MB-435
UO-31 renal = system: UO-31 renal
NCI-H23 lung = system: NCI-H23 lung
MDA-MB-231 breast = system: MDA-MB-231 breast
IGROV1 ovarian = system: IGROV1 ovarian
NCI-H522 lung = system: NCI-H522 lung
A498 renal = system: A498 renal
T-47D breast = system: T-47D breast
HOP-62 NSCLC = system: HOP-62 NSCLC
SK-OV-3 ovarian = system: SK-OV-3 ovarian

## O=C(c1ccc(O)cc1)C1[C@H](c2ccc(Cl)cc2)[C@@H](c2ccccc2)NC12C(=O)Nc1ccc(Br)cc12 (some centres undefined)
LOX IMVI melanoma
  GI50: 14 µM
  TGI: 27 µM
UACC-257 melanoma
  GI50: 14.8 µM
  TGI: 28.6 µM
KM12 colon
  GI50: 13.4 µM
  TGI: 29.5 µM
NCI-H460 lung
  GI50: 14.7 µM
  TGI: 28.8 µM
786-0 renal
  GI50: 1.64 µM
  TGI: 3 µM
HL-60(TB) leukemia
  GI50: 20.4 µM
  TGI: 46.5 µM
SK-MEL-2 melanoma
  GI50: 14.4 µM
  TGI: 28.3 µM
SW-620 colon
  GI50: 14.4 µM
  TGI: 28.1 µM
TK-10 renal
  GI50: 13.8 µM
  TGI: 27 µM
RXF 393 renal
  GI50: 13 µM
  TGI: 26.3 µM
HT29 colon
  GI50: 14 µM
  TGI: 27.9 µM
HCT-15 colon
  GI50: 13.6 µM
  TGI: 26.8 µM
NCI-H226 lung
  GI50: 13.6 µM
  TGI: 28.9 µM
CAKI-1 renal
  GI50: 10.8 µM
  TGI: 23.4 µM
HCC-2998 colon
  GI50: 14.1 µM
  TGI: 27.3 µM
OVCAR-3 ovarian
  GI50: 13.8 µM
  TGI: 28 µM
CCRF-CEM leukemia
  GI50: 18.9 µM
  TGI: 45 µM
A549 NSCLC
  GI50: 11.8 µM
  TGI: 25.9 µM
SK-MEL-5 melanoma
  GI50: 15.7 µM
  TGI: 29.1 µM
K-562 leukemia
  GI50: 14.3 µM
  TGI: 43.5 µM
OVCAR-4 ovarian
  GI50: 14.3 µM
  TGI: 28.1 µM
U251 CNS
  GI50: 15 µM
  TGI: 29.6 µM
SN12C renal
  GI50: 14.7 µM
  TGI: 28.4 µM
M14 melanoma
  GI50: 12.8 µM
  TGI: 25.5 µM
SF-539 CNS
  GI50: 14.7 µM
  TGI: 28 µM
BT-549 breast
  GI50: 16.3 µM
  TGI: 30 µM
SR leukemia
  GI50: 10.6 µM
  TGI: 26.2 µM
MOLT-4 leukemia
  GI50: 11.6 µM
  TGI: 32.2 µM
MDA-MB-468 breast
  GI50: 8.82 µM
  TGI: 21.3 µM
NCI/ADR-RES ovarian
  GI50: 16.6 µM
  TGI: 31.5 µM
OVCAR-5 ovarian
  GI50: 13.7 µM
  TGI: 26.6 µM
ACHN renal
  GI50: 12.6 µM
  TGI: 25.2 µM
MALME-3M melanoma
  GI50: 15.1 µM
  TGI: 28.8 µM
EKVX NSCLC
  GI50: 11 µM
  TGI: 23.2 µM
RPMI-8226 leukemia
  GI50: 23.6 µM
  TGI: 69.2 µM
OVCAR-8 ovarian
  GI50: 15.5 µM
  TGI: 30.7 µM
SF-295 CNS
  GI50: 12.4 µM
  TGI: 25 µM
HOP-92 NSCLC
  GI50: 14.2 µM
  TGI: 28.6 µM
UACC-62 melanoma
  GI50: 11.8 µM
  TGI: 24.1 µM
HCT-116 colon
  GI50: 12.6 µM
  TGI: 25.1 µM
PC-3 prostate
  GI50: 12.3 µM
  TGI: 25.9 µM
DU-145 prostate
  GI50: 16.6 µM
  TGI: 31.6 µM
SF-268 CNS
  GI50: 14.4 µM
  TGI: 31 µM
SK-MEL-28 melanoma
  GI50: 16.3 µM
  TGI: 30 µM
HS 578T breast
  GI50: 15.2 µM
  TGI: 38.2 µM
MCF7 breast
  GI50: 12.2 µM
  TGI: 25.7 µM
COLO 205 colon
  GI50: 15.8 µM
  TGI: 30 µM
SNB-75 CNS
  GI50: 10.8 µM
  TGI: 26.2 µM
SNB-19 CNS
  GI50: 14.6 µM
  TGI: 27.7 µM
MDA-MB-435
  GI50: 16.2 µM
  TGI: 31.9 µM
UO-31 renal
  GI50: 10.6 µM
  TGI: 22.4 µM
NCI-H23 lung
  GI50: 15.1 µM
  TGI: 29.2 µM
MDA-MB-231 breast
  GI50: 13.1 µM
  TGI: 26 µM
IGROV1 ovarian
  GI50: 12.1 µM
  TGI: 24.8 µM
NCI-H522 lung
  GI50: 13.3 µM
  TGI: 26.6 µM
A498 renal
  GI50: 13.8 µM
  TGI: 27 µM
T-47D breast
  GI50: 11.7 µM
  TGI: 24.1 µM
HOP-62 NSCLC
  GI50: 13.9 µM
  TGI: 27.5 µM
SK-OV-3 ovarian
  GI50: 14.9 µM
  TGI: 28.3 µM

## COc1cc2c(cc1OC)CN(CCCCOc1cc(O)c3c(=O)cc(-c4ccccc4)oc3c1)CC2
LOX IMVI melanoma
  GI50: 4.51 µM
  TGI: 15.3 µM
UACC-257 melanoma
  GI50: 5.28 µM
  TGI: 18.6 µM
KM12 colon
  GI50: 10.3 µM
  TGI: 36.9 µM
NCI-H460 lung
  GI50: 7.07 µM
  TGI: 41.5 µM
786-0 renal
  GI50: 3.53 µM
  TGI: 14.4 µM
HL-60(TB) leukemia
  GI50: 2.32 µM
  TGI: 13.8 µM
SK-MEL-2 melanoma
  GI50: 14 µM
  TGI: 40.1 µM
SW-620 colon
  GI50: 11.3 µM
  TGI: 35.4 µM
TK-10 renal
  GI50: 57.4 µM
  TGI: > 100 µM
RXF 393 renal
  GI50: 1.69 µM
  TGI: 10.9 µM
HT29 colon
  GI50: 3.34 µM
  TGI: 12.4 µM
HCT-15 colon
  GI50: 6.7 µM
  TGI: 31.8 µM
NCI-H226 lung
  GI50: 10.2 µM
  TGI: > 100 µM
CAKI-1 renal
  GI50: 13.1 µM
  TGI: 97.5 µM
HCC-2998 colon
  GI50: 7.91 µM
  TGI: 22.1 µM
OVCAR-3 ovarian
  GI50: 13.1 µM
  TGI: 50.3 µM
CCRF-CEM leukemia
  GI50: 5.17 µM
  TGI: > 100 µM
A549 NSCLC
  GI50: 16.1 µM
  TGI: > 100 µM
SK-MEL-5 melanoma
  GI50: 11 µM
  TGI: 23.5 µM
K-562 leukemia
  GI50: 2.48 µM
  TGI: 10.8 µM
OVCAR-4 ovarian
  GI50: 4.01 µM
  TGI: 91.5 µM
U251 CNS
  GI50: 11.9 µM
  TGI: 56.6 µM
SN12C renal
  GI50: 6.25 µM
  TGI: > 100 µM
M14 melanoma
  GI50: 2.96 µM
  TGI: 11.3 µM
SF-539 CNS
  GI50: 10.4 µM
  TGI: 23.8 µM
BT-549 breast
  GI50: 8.53 µM
  TGI: 22.9 µM
SR leukemia
  GI50: 1.85 µM
  TGI: 4.67 µM
MOLT-4 leukemia
  GI50: 3.09 µM
  TGI: 19.6 µM
MDA-MB-468 breast
  GI50: 2.07 µM
  TGI: 14 µM
OVCAR-5 ovarian
  GI50: 40.7 µM
  TGI: > 100 µM
ACHN renal
  GI50: 8.74 µM
  TGI: > 100 µM
MALME-3M melanoma
  GI50: 2.95 µM
  TGI: 8.16 µM
EKVX NSCLC
  GI50: 71 µM
  TGI: > 100 µM
RPMI-8226 leukemia
  GI50: 4.29 µM
  TGI: 24.3 µM
OVCAR-8 ovarian
  GI50: 18.9 µM
  TGI: > 100 µM
SF-295 CNS
  GI50: 10.7 µM
  TGI: 25 µM
HOP-92 NSCLC
  GI50: 8.92 µM
  TGI: > 100 µM
UACC-62 melanoma
  GI50: 2.67 µM
  TGI: 7.92 µM
HCT-116 colon
  GI50: 3.42 µM
  TGI: 13.4 µM
PC-3 prostate
  GI50: 6.44 µM
  TGI: > 100 µM
DU-145 prostate
  GI50: 32.1 µM
  TGI: > 100 µM
SF-268 CNS
  GI50: 10.6 µM
  TGI: > 100 µM
SK-MEL-28 melanoma
  GI50: 5.32 µM
  TGI: 19.6 µM
HS 578T breast
  GI50: 11.6 µM
  TGI: 52 µM
MCF7 breast
  GI50: 6.06 µM
  TGI: 35.4 µM
COLO 205 colon
  GI50: 3.27 µM
  TGI: 12.6 µM
SNB-75 CNS
  GI50: 4 µM
  TGI: 45.4 µM
SNB-19 CNS
  GI50: 28.5 µM
  TGI: > 100 µM
MDA-MB-435
  GI50: 13.2 µM
  TGI: 41.9 µM
UO-31 renal
  GI50: 10.3 µM
  TGI: 26.4 µM
NCI-H23 lung
  GI50: 24.5 µM
  TGI: > 100 µM
MDA-MB-231 breast
  GI50: 10.6 µM
  TGI: 44.8 µM
IGROV1 ovarian
  GI50: 26.4 µM
  TGI: > 100 µM
NCI-H522 lung
  GI50: 12.5 µM
  TGI: 29.4 µM
A498 renal
  GI50: 25.8 µM
  TGI: 63.6 µM
T-47D breast
  GI50: 9.01 µM
  TGI: 65.9 µM
HOP-62 NSCLC
  GI50: 22.2 µM
  TGI: > 100 µM
SK-OV-3 ovarian
  GI50: 15.7 µM
  TGI: 50.8 µM
